{
  "source": "paper PMC7438500",
  "about": "(Nature Communications, 2020)",
  "key": {"ghrelin receptor WT": {"target": "T1, ghrelin receptor WT (Homo sapiens, UniProt Q92847, N188Q)", "T1 construct": "Full-length human ghrelin receptor was used for the mutagenesis; expressed in transfected cells", "T1 sequence (Q92847 whole entry N188Q)": "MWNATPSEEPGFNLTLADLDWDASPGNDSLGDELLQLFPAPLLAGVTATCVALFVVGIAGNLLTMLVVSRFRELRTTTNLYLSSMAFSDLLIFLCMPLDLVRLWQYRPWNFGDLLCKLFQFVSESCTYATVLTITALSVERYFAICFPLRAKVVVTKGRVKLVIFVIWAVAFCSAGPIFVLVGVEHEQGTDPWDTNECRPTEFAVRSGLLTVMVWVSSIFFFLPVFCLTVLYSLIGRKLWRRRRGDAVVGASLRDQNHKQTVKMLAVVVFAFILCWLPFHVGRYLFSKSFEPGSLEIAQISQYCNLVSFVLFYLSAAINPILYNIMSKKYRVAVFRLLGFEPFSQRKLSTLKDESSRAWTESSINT", "assay": "[3H]-Compound 21 saturation binding, WT", "conditions": "HEK293 membranes, on ice 1 h, pH7.5; mean ± s.d., three independent experiments", "experimental": "(§1) The homogenate was ultracentrifuged at 100,000×g for 30 min at 4 °C, and the pellet was washed twice with cold homogenization buffer. The protein concentration was determined using BCA Protein Assay (Thermo Fisher). […] Bound [^3H]-Compound 21 was quantified with an AccuFLEX LCS-8000 liquid scintillation counter (Hitachi) after addition of 2.5 ml of Clear-Sol liquid scintillation cocktail (Nacalai Tesque). Data were analyzed by nonlinear curve-fitting using the program GraphPad Prism 5. Binding data are reported as means ± s.d."}, "[1]": {"target": "ghrelin receptor crystallization construct (hGHSR29-346 (T130K/N188Q))", "assay": "[3H]-Compound 21 saturation binding, crystallization construct", "design": "species or system human", "conditions": "Sf9 membranes, 3.125–50 nM radioligand, on ice 1 h, pH7.5; mean ± s.d.", "experimental": "as §1"}, "[2]": {"system": "ghrelin receptor WT (hGHSR WT)", "assay": "Luciferase assay, basal (constitutive) activity in presence of Compound 21", "assay_type": "cell-based, human", "conditions": "CHO cells, 10^-10 to 10^-6 M Compound 21, 1 h; n=5–6", "experimental": "Transfections were performed using the FuGENE HD transfection reagent (Promega). The next day, the transfected cells were collected and plated into 96-well white microplates (Corning) at a density of 2.5 × 10^4 cells/well. After a 1-day incubation, the luciferase activities were determined using Dual-Luciferase Reporter Assay System (Promega). […] All firefly luciferase activities were normalized against Renilla luciferase activity. All experiments were performed in sextuplicate."}, "ghrelin receptor [3]": {"target": "T2, ghrelin receptor (Homo sapiens, UniProt Q92847)", "T2 construct": "expressed in transfected cells; host or cells: HEK293 cells (membrane preparations, transient expression)", "assay": "Crystal structure of bRIL-hGHSR-Fab 7881-Compound 21 complex", "conditions": "3.3 Å resolution, PDB 6KO5", "experimental": "The complex was purified by gel filtration using Superdex 200 Increase 10/300 GL. […] In the mixture, the protein solution:lipid mass ratio was fixed at 2:3 using the twin-syringe mixing method. Crystallization experiments were carried out in 96-well glass sandwich plates (Molecular Dimensions) on an NT8-LCP crystallization robot (Formulatrix) using a 30 nl protein solution cubic phase overlaid with 600 nl precipitant solution, and incubated at 20 °C. The best crystals were obtained from precipitant solution containing 100 mM MES (pH 6.6–7.0), 400 mM potassium acetate, and 36–40% polyethylene glycol (PEG) 300. The crystals were collected within 2 weeks using mesh grid loops (WAKENBTECH) and flash-cooled in liquid nitrogen. Initial crystals were obtained in hanging drops by vapor diffusion at 20 °C from the precipitant solution containing 100 mM bicine (pH 9.0), 100 mM sodium chloride, and 30% PEG550MME.\nAll diffraction datasets were collected at SPring-8 BL32XU[42] using a micro-focused X-ray beam. Loop-harvested microcrystals were identified using raster scan and analysis by SHIKA[43]. […] The structure was determined by molecular replacement with the program PHASER[47], using the receptor portions of the antagonist-bound orexin receptor (PDB ID: 4S0V), bRIL (PDB ID: 1M6T), and the Fab 7881 antibody (this study, ID: 6KS2) as the search models. […]"}, "ghrelin receptor R102A": {"system": "ghrelin receptor R102A", "assay": "Intracellular Ca2+ concentration assay, R102A", "assay_type": "cell-based, human", "conditions": "Fig. 4b", "experimental": "(§2) The positions of mutated amino acids and primers are listed in Supplementary Table 2.\n(§3) Transfections were performed using the FuGENE HD transfection reagent (Promega). The next day, the transfected cells were collected and plated into 96-well black-wall assay microplates (Corning) at a density of 3 × 10^4 cells/well. After a 1-day incubation, the cells were incubated for 1 h with 100 μl of calcium indicator Fluo-4 from the FLIPR Calcium 5 Assay Kit (Molecular Devices) in Hank’s BSS containing 20 mM HEPES-NaOH (pH7.5) and 2.5 mM probenecid. Fifty-microliter aliquots of samples were tested to induce changes in fluorescence due to increased calcium concentration on a FlexStation3 (Molecular Devices). Maximum [Ca^2+]i changes were determined in quadruplicate (n = 4)."}, "[4]": {"conditions": "peripheral injection; ref [3]; cited from earlier work"}, "ghrelin receptor E124A": {"system": "ghrelin receptor E124A", "assay": "Intracellular Ca2+ concentration assay, E124A", "assay_type": "cell-based, human", "conditions": "Fig. 4c", "experimental": "as §2, §3"}, "ghrelin receptor D99A": {"system": "ghrelin receptor D99A", "assay": "Intracellular Ca2+ concentration assay, D99A", "assay_type": "cell-based, human", "conditions": "Fig. 4a", "experimental": "as §2, §3"}, "ghrelin receptor F286A": {"system": "T3, ghrelin receptor F286A", "T3 construct": "Full-length human ghrelin receptor was used for the mutagenesis; expressed in transfected cells; host or cells: CHO cells", "assay": "Intracellular Ca2+ concentration assay, F286A", "assay_type": "cell-based, human", "conditions": "Fig. 4f", "experimental": "as §2, §3"}, "ghrelin receptor R283A": {"system": "ghrelin receptor R283A", "assay": "Intracellular Ca2+ concentration assay, R283A", "assay_type": "cell-based, human", "conditions": "Fig. 4d", "experimental": "as §2, §3"}, "ghrelin receptor [5]": {"system": "ghrelin receptor", "conditions": "cited from earlier work", "from_the_text": "No other peptide hormone is known to require such an acyl-modification for its activity."}, "bRIL-hGHSR": {"system": "bRIL-hGHSR", "assay": "Protein thermostability assay (CPM)", "assay_type": "biochemical, human", "conditions": "Compound 21 present in both samples", "experimental": "The thermal stability analysis was performed with the thiol-specific fluorochrome N-[4-(7-diethylamino-4-methyl-3-coumarinyl)phenyl]maleimide (CPM)[40]. CPM at 4 mg ml^−1 in DMSO was diluted 40-fold into buffer containing 20 mM HEPES-NaOH (pH 7.5), 100 mM NaCl, 0.01% LMNG, and 0.001% CHS. Purified protein (20 µg) was mixed with diluted CPM and incubated on ice for 15 min in darkness. The reaction mixture (20 µl) was heated in a controlled manner with a ramp rate of 3 °C min^−1 in a MyiQ2 thermal cycler (Bio-Rad). […] Assays were performed over a temperature range starting from 4 °C and ending at 80 °C. The peak in the derivative of the fluorescence signal was used to determine the melting temperature."}},
  "note": "“Also recorded” adds a separate entry of the source.",
  "data": [
    {"molecule": "Cc1nc2ccc(Oc3ccc(Br)cc3F)nc2c(=O)n1CC1CCCN(C(C)C)C1", "note": "(centres unmarked) [Compound 21]", "values": [
      {"measurement": "Kd", "setting": "ghrelin receptor WT", "result": "4.42 ± 0.76", "unit": "nM"},
      {"measurement": "Kd", "setting": "[1]", "result": "17.2 ± 7.1", "unit": "nM"},
      {"measurement": "effect on constitutive activity", "setting": "[2]", "result": "no effect on the constitutive activity; also recorded: neutral antagonist"},
      {"measurement": "interaction seen in crystal structure", "setting": "ghrelin receptor [3]", "result": "forms a hydrogen bond with R283^6.55; also recorded: π–cation interaction with R102^2.63; also recorded: forms hydrophobic interactions with the F279^6.51, F309^7.39, and F312^7.42; also recorded: three hydrophobic contacts with residues I178^4.60, L181^4.63, and M213^5.39"}
    ]},
    {"molecule": "CCCCCCCC(=O)OC[C@H](NC(=O)[C@H](CO)NC(=O)CN)C(=O)N[C@@H](Cc1ccccc1)C(=O)N[C@@H](CC(C)C)C(=O)N[C@@H](CO)C(=O)N1CCC[C@H]1C(=O)N[C@@H](CCC(=O)O)C(=O)N[C@@H](Cc1c[nH]cn1)C(=O)N[C@@H](CCC(N)=O)C(=O)N[C@@H](CCCNC(=N)N)C(=O)N[C@H](C(=O)N[C@@H](CCC(N)=O)C(=O)N[C@@H](CCC(N)=O)C(=O)N[C@@H](CCCNC(=N)N)C(=O)N[C@@H](CCCCN)C(=O)N[C@@H](CCC(=O)O)C(=O)N[C@@H](CO)C(=O)N[C@@H](CCCCN)C(=O)N[C@@H](CCCCN)C(=O)N1CCC[C@H]1C(=O)N1CCC[C@H]1C(=O)N[C@@H](C)C(=O)N[C@@H](CCCCN)C(=O)N[C@@H](CC(C)C)C(=O)N[C@@H](CCC(N)=O)C(=O)N1CCC[C@H]1C(=O)N[C@@H](CCCNC(=N)N)C(=O)O)C(C)C", "note": "[Ghrelin]", "values": [
      {"measurement": "receptor activity", "setting": "ghrelin receptor R102A", "result": "abolishes the receptor activity"},
      {"measurement": "appetite", "setting": "[4]", "result": "induces appetite stimulation following peripheral injection"},
      {"measurement": "ghrelin-induced receptor function", "setting": "ghrelin receptor E124A", "result": "completely abolished ghrelin-induced receptor function"},
      {"measurement": "receptor activity", "setting": "ghrelin receptor D99A", "result": "abolishes the receptor activity"},
      {"measurement": "ghrelin-induced receptor activity", "setting": "ghrelin receptor F286A", "result": "only slightly lower than that of the WT ghrelin receptor"},
      {"measurement": "ghrelin-induced receptor function", "setting": "ghrelin receptor R283A", "result": "completely abolished ghrelin-induced receptor function"}
    ]},
    {"molecule": "des-acyl ghrelin", "values": [
      {"measurement": "activity of ghrelin forms", "setting": "ghrelin receptor [5]; ref [2],[5]", "result": "inactive"}
    ]},
    {"molecule": "n-octanoyl ghrelin", "values": [
      {"measurement": "potency of ghrelin forms", "setting": "ghrelin receptor [5]; reference not given", "result": "most potent active form"}
    ]},
    {"molecule": "Fab 7881: Fab fragment antibody specific for the ghrelin receptor, binds ICL3 (antibody, V domains shown) VH: EVQLQQSGAELVRPGASVKLSCKASGYTFTDYEMHWVKQTPVHGLEWIGAIDPETGGTVYNQKFKGKATLTADISSTTAYMELRSLTSEDSAVYFCISEDIDESKDYWGQGTTLTVSS VL: DIVMTQSPSSLAVSAGEKVTLSCKSSQSLFNSRTRKNYLAWYQQKPGLSPTLLIYWASTRKSGVPDRFTGSGSGTDFTLTITSVQAEDLAVYYCKQSYYLRTFGGGTKLEIK", "values": [
      {"measurement": "interaction seen in crystal structure", "setting": "ghrelin receptor [3]", "result": "binds to intracellular loop 3 (ICL3)"},
      {"measurement": "increase of Tm", "setting": "bRIL-hGHSR", "result": "about 5 °C"}
    ]}
  ]
}
